≈ marks a conversion by molar mass, not a printed value. Where two headings read alike, the source gives them in different places. *1 amine or outer side, *2 acyl side, *3 side chain or, on linkers, in order; H or OH if unused. Where a SMILES comes first, the peptide text is derived from it. Bridges are numbered along the chain shown (N, C = ends). [ ]: non-standard residue; d: D form. The star is where a group is joined. ξ: configuration not given here. NH(1,3-benzodioxol-5-yl) = c1cc2c(cc1N*)OCO2; Phe(3,5-F2) = N[C@@H](Cc1cc(F)cc(F)c1)C(=O)O; Morpholine(3S-CO) = O=C(O)[C@@H]1COCCN1; Pro(4R-Me) = C[C@H]1CN[C@H](C(=O)O)C1; X11 = O=C(C1C[C@@H](F)CN1[*:1])[*:2]; X10 = O=C(C1C[C@H](F)CN1[*:1])[*:2]; NMeT = CN[C@H](C(=O)O)[C@@H](C)O; NH(4-Me-phenyl) = Cc1ccc(N*)cc1; aThr = C[C@H](O)[C@H](N)C(=O)O; Pip = O=C(O)[C@@H]1CCCCN1; ξPip = O=C(O)C1CCCCN1; CO = O=C([*:1])[*:2]; ξP = O=C(O)C1CCCN1
Key:
Assay type in all cases: cell-based
[1] = system: Streptococcus pyogenes, ATCC 700294; assay: Minimal inhibitory concentration assay (microbroth dilution)
Procedure: (§1) It is understood, that in various aspects, the MIC is determined by a microbroth dilution method. In a further aspect, the MIC is determined by a microbroth dilution method using Staphylococcus aureus, ATCC 29213. In a still further aspect, the MIC is determined by a microbroth dilution method using Staphylococcus aureus, NRS70. In a yet further aspect, the MIC is determined by a microbroth dilution method using Streptococcus pyogenes, ATCC 700294. In an even further aspect, the MIC is determined by a microbroth dilution method using Streptococcus pneumoniae, DAW27. In a still further aspect, the MIC is determined by a microbroth dilution method using Bacillus subtilis, ATCC 23857. In a yet further aspect, the MIC is determined by a microbroth dilution method using Enterococcus faecalis, ATCC 33186. In an even further aspect, the MIC is determined using Staphylococcus aureus, USA 300. In a still further aspect, the MIC is determined using Streptococcus pneumoniae, R6. In a further aspect, the MIC is determined using Staphylococcus aureus, USA 300 and compared to the MIC determined using Staphylococcus aureus, USA 300 wherein ClpP is inactivated, thus allowing confirmation that killing is via a ClpP-dependent pathway.
Minimal inhibitory concentrations (“MICs”) were determined using the microbroth dilution method according to Clinical Laboratory Standards Institute (CLSI; National, C.F. C. L. S., Methods for Dilution Antimicrobial Susceptibility Tests for Bacteria Grow aerobically-Seventh Edition: Approved Standard M7-A7, CLSI, Wayne, Pa., USA, 2008) and were read by visual inspection. Two fold serial dilutions of test compound in 100 μL of the appropriate broth media were first prepared in 96-well round bottom microtiter plates (Nalgene Nunc International, Rochester, N.Y., USA). […] The plates were then incubated aerobically at 37° C. All strains were incubated overnight. After incubations, in all cases the MIC was recorded as the lowest concentration of drug that prevented bacterial growth. The bacterial strains for which MIC was determined as described in Table 4.

[2] = system: Streptococcus pneumoniae, R6; assay: Minimal inhibitory concentration assay; conditions: read-out: Minimal Inhibitory Concentrations S. pneumoniae R6
Procedure: It is understood, that in various aspects, the MIC is determined by a microbroth dilution method. […] In a still further aspect, the MIC is determined by a microbroth dilution method using Staphylococcus aureus, NRS70. […] In an even further aspect, the MIC is determined by a microbroth dilution method using Streptococcus pneumoniae, DAW27. […] In an even further aspect, the MIC is determined using Staphylococcus aureus, USA 300. In a still further aspect, the MIC is determined using Streptococcus pneumoniae, R6. In a further aspect, the MIC is determined using Staphylococcus aureus, USA 300 and compared to the MIC determined using Staphylococcus aureus, USA 300 wherein ClpP is inactivated, thus allowing confirmation that killing is via a ClpP-dependent pathway.
Two fold serial dilutions of test compound in 100 μL of the appropriate broth media were first prepared in 96-well round bottom microtiter plates (Nalgene Nunc International, Rochester, N.Y., USA). […] The plates were then incubated aerobically at 37° C. All strains were incubated overnight. After incubations, in all cases the MIC was recorded as the lowest concentration of drug that prevented bacterial growth. The bacterial strains for which MIC was determined as described in Table 4.

[3] = system: Bacillus subtilis, ATCC 23857; assay: Minimal inhibitory concentration assay (microbroth dilution)
Procedure: as §1
(§2) Minimal inhibitory concentrations (“MICs”) were determined using the microbroth dilution method according to Clinical Laboratory Standards Institute (CLSI; National, C.F. C. L. S., Methods for Dilution Antimicrobial Susceptibility Tests for Bacteria Grow aerobically-Seventh Edition: Approved Standard M7-A7, CLSI, Wayne, Pa., USA, 2008) and were read by visual inspection. Two fold serial dilutions of test compound in 100 μL of the appropriate broth media were first prepared in 96-well round bottom microtiter plates (Nalgene Nunc International, Rochester, N.Y., USA). An equivalent volume (100 μL) of bacterial broth inocula containing approximately 10^5 bacterial cfu/mL was added to each well to give final concentrations of test compound starting at 200 μM. The plates were then incubated aerobically at 37° C. All strains were incubated overnight. After incubations, in all cases the MIC was recorded as the lowest concentration of drug that prevented bacterial growth. The bacterial strains for which MIC was determined as described in Table 4.

[4] = system: Staphylococcus aureus, NRS70; assay: as above
Procedure: as §1, §2

[5] = system: Staphylococcus aureus, ATCC 29213; assay: as above; conditions: ATCC29213, read-out: Minimal Inhibitory Concentrations S. aureus ATCC 29213
Procedure: as §1, §2

[6] = system: Staphylococcus aureus, USA 300; assay: Minimal inhibitory concentration assay; conditions: USA300, read-out: Minimal Inhibitory Concentrations S. aureus USA 300
Procedure: as §1, §2

[7] = system: Staphylococcus aureus, USA 300 wherein ClpP is inactivated; assay: Minimal inhibitory concentration assay
Procedure: as §1, §2

[8] = Streptococcus pyogenes, ATCC700294, read-out: Minimal Inhibitory Concentrations S. pyogenes ATCC 700294
[9] = Bacillus subtilis, ATCC23857, read-out: Minimal Inhibitory Concentrations B. subtilis ATCC 23857
[10] = Staphylococcus aureus, NRS70, read-out: Minimal Inhibitory Concentrations S. aureus NRS70
[11] = Streptococcus pyogenes, ATCC700294; read-out: Minimal Inhibitory Concentrations S. pyogenes ATCC 700294
[12] = Bacillus subtilis, ATCC23857; read-out: Minimal Inhibitory Concentrations B. subtilis ATCC 23857
[13] = Staphylococcus aureus, NRS70; read-out: Minimal Inhibitory Concentrations S. aureus NRS70

For Cc1ccc(NC(=O)N[C@@H](Cc2cc(F)cc(F)c2)C(=O)N[C@H]2COC(=O)C3C[C@H](F)CN3C(=O)[C@H](C)NC(=O)C3CCCCN3C(=O)C3CCCN3C2=O)cc1 (stereo partly drawn) [Compound 50, (S)-3-(3,5-difluorophenyl)-N-((2S,6S,8aS,14aS,20S,23aS)-2-fluoro-6-methyl-5,8,14,19,23-pentaoxooctadecahydro-1H,5H,14H,19H-pyrido[2,1-i]dipyrrolo[2,1-c:2′,1′-l][1]oxa[4,7,10,13]tetraazacyclohexadecin-20-yl)-2-(3-(p-tolyl)ureido)propanamide] ({NH(4-Me-phenyl)-CO}-[Phe(3,5-F2)]S[ξP][ξPip]A[X10]; ester 2-C), the MIC [1, 8] was 1.6 µM (≈ 1.28 µg/mL), the MIC [2] was 0.8 µM (≈ 0.638 µg/mL) and the MIC [3, 9] was > 200 µM. For the same molecule, the MIC [4, 10] was 1.6 µM (≈ 1.28 µg/mL), the MIC [5] was 3.1 µM (≈ 2.47 µg/mL) and the MIC [6] was 3.1 µM (≈ 2.47 µg/mL). The “Minimal Inhibitory Concentrations S. aureus USA 300 ΔClpP” value [7] was >200 µM.

In the case of Cc1ccc(NC(=O)N[C@@H](Cc2cc(F)cc(F)c2)C(=O)N[C@H]2COC(=O)C3C[C@@H](F)CN3C(=O)[C@H](C)NC(=O)C3CCCCN3C(=O)C3CCCN3C2=O)cc1 (stereo partly drawn) [Compound 51, (S)-3-(3,5-difluorophenyl)-N-((2R,6S,8aS,14aS,20S,23aS)-2-fluoro-6-methyl-5,8,14,19,23-pentaoxooctadecahydro-1H,5H,14H,19H-pyrido[2,1-i]dipyrrolo[2,1-c:2′,1′-l][1]oxa[4,7,10,13]tetraazacyclohexadecin-20-yl)-2-(3-(p-tolyl)ureido)propanamide] ({NH(4-Me-phenyl)-CO}-[Phe(3,5-F2)]S[ξP][ξPip]A[X11]; ester 2-C), the MIC [1, 8] is reported as 12.5 µM (≈ 9.97 µg/mL), the MIC [2] is reported as 6.3 µM (≈ 5.03 µg/mL) and the MIC [3, 9] is reported as > 200 µM. The MIC [4, 10] was 6.3 µM (≈ 5.03 µg/mL), the MIC [5] was 12.5 µM (≈ 9.97 µg/mL) and the MIC [6] was 12.5 µM (≈ 9.97 µg/mL). For the same molecule, the “Minimal Inhibitory Concentrations S. aureus USA 300 ΔClpP” value [7] was >200 µM.

With C[C@@H]1C[C@H]2C(=O)O[C@@H](C)[C@H](NC(=O)[C@H](Cc3cc(F)cc(F)c3)NC(=O)Nc3ccc4c(c3)OCO4)C(=O)N3CCC[C@H]3C(=O)N(C)[C@@H]([C@@H](C)O)C(=O)N[C@@H](C)C(=O)N2C1 [Compound 197, (S)-2-(3-(benzo[d][1,3]dioxol-5-yl)ureido)-3-(3,5-difluorophenyl)-N-((2R,6S,9S,11aS,17S,18S,20aS)-9-((R)-1-hydroxyethyl)-2,6,10,18-tetramethyl-5,8,11,16,20-pentaoxohexadecahydro-1H,5H,16H-dipyrrolo[2,1-c:2′,1′-l][1]oxa[4,7,10,13]tetraazacyclohexadecin-17-yl)propanamide] ({NH(1,3-benzodioxol-5-yl)-CO}-[Phe(3,5-F2)][aThr]P[NMeT]A[Pro(4R-Me)]; ester 2-C) the MIC [1, 11] was 0.039 µM (≈ 0.0328 µg/mL), the MIC [2] was < 0.02 µM and the MIC [3, 12] was < 0.02 µM. The MIC [4, 13] was 0.039 µM (≈ 0.0328 µg/mL), the MIC [5] was 0.039 µM (≈ 0.0328 µg/mL) and the MIC [6] was 0.078 µM (≈ 0.0657 µg/mL). For the same molecule, the “Minimal Inhibitory Concentrations S. aureus USA 300 ΔClpP” value [7] was >20 µM.

C[C@@H]1C[C@H]2C(=O)O[C@@H](C)[C@H](NC(=O)[C@H](Cc3cc(F)cc(F)c3)NC(=O)Nc3ccc4c(c3)OCO4)C(=O)N3CCC[C@H]3C(=O)N3CCCC[C@H]3C(=O)N[C@@H](C)C(=O)N2C1 [Compound 198, (S)-2-(3-(benzo[d][1,3]dioxol-5-yl)ureido)-3-(3,5-difluorophenyl)-N-((2R,6S,8aS,14aS,20S,21S,23aS)-2,6,21-trimethyl-5,8,14,19,23-pentaoxooctadecahydro-1H,5H,14H,19H-pyrido[2,1-i]dipyrrolo[2,1-c:2′,1′-l][1]oxa[4,7,10,13]tetraazacyclohexadecin-20-yl)propanamide] ({NH(1,3-benzodioxol-5-yl)-CO}-[Phe(3,5-F2)][aThr]P[Pip]A[Pro(4R-Me)]; ester 2-C) was tested, and the MIC [1, 11] was 0.039 µM (≈ 0.0327 µg/mL), the MIC [2] was < 0.02 µM and the MIC [3, 12] was < 0.02 µM. For the same molecule, the MIC [4, 13] was < 0.02 µM, the MIC [5] was 0.039 µM (≈ 0.0327 µg/mL) and the MIC [6] was 0.039 µM (≈ 0.0327 µg/mL). For the same molecule, the “Minimal Inhibitory Concentrations S. aureus USA 300 ΔClpP” value [7] was >20 µM.

In the case of C[C@@H]1C[C@H]2C(=O)O[C@@H](C)[C@H](NC(=O)[C@H](Cc3cc(F)cc(F)c3)NC(=O)Nc3ccc4c(c3)OCO4)C(=O)N3CCC[C@H]3C(=O)N3CCOC[C@H]3C(=O)N[C@@H](C)C(=O)N2C1 [Compound 199, (S)-2-(3-(benzo[d][1,3]dioxol-5-yl)ureido)-3-(3,5-difluorophenyl)-N-((6aS,12S,13S,15aS,17R,21S,23aS)-13,17,21-trimethyl-6,11,15,20,23-pentaoxooctadecahydro-6H,11H,15H-[1,4]oxazino[3,4-i]dipyrrolo[2,1-c:2′,1′-l][1]oxa[4,7,10,13]tetraazacyclohexadecin-12-yl)propanamide] ({NH(1,3-benzodioxol-5-yl)-CO}-[Phe(3,5-F2)][aThr]P[Morpholine(3S-CO)]A[Pro(4R-Me)]; ester 2-C), the MIC [1, 11] is reported as 0.039 µM (≈ 0.0328 µg/mL), the MIC [2] is reported as < 0.02 µM and the MIC [3, 12] is reported as 0.039 µM (≈ 0.0328 µg/mL). The MIC [4, 13] was 0.039 µM (≈ 0.0328 µg/mL), the MIC [5] was 0.039 µM (≈ 0.0328 µg/mL) and the MIC [6] was 0.078 µM (≈ 0.0655 µg/mL). The “Minimal Inhibitory Concentrations S. aureus USA 300 ΔClpP” value [7] was >20 µM.

Work on CN[C@@H]1[C@H](O)[C@H](NC)[C@H]2O[C@@]3(O)C(=O)C[C@@H](C)O[C@H]3O[C@@H]2[C@H]1O [Spectinomycin, spectinomycin, reference compound] yielded an MIC [1, 11] of 12.5 µM (≈ 4.15 µg/mL), an MIC [2] of 6.3 µM (≈ 2.09 µg/mL) and an MIC [3, 12] of 6.3 µM (≈ 2.09 µg/mL). For the same molecule, the MIC [4, 13] was > 800 µM, the MIC [5] was 50 µM (≈ 16.6 µg/mL) and the MIC [6] was 50 µM (≈ 16.6 µg/mL). For the same molecule, the “Minimal Inhibitory Concentrations S. aureus USA 300 ΔClpP” value [7] was 25 µM.

Source: patent publication US10457707B2, “Substituted urea depsipeptide analogs as activators of the CLPP endopeptidase” (priority 2015, dated 2019)
